Reference: US11779576B2, “Method of treating C3 glomerulopathy” (CHEMOCENTRYX, INC., priority 2016, dated 2023)
“Also recorded” adds a separate entry of the source.

Experiments:
[1] = system: patient with progressive complement 3 glomerulonephritis (recurrent C3GN in a renal transplant); assay: Study of compound 1 in a patient with progressive C3 glomerulonephritis: eGFR, proteinuria, clinical condition; format: in vivo, human
Text: Under the Special Needs program in the United Kingdom (which is similar to a compassionate use protocol in the US), a C3 glomerulonephritis patient received treatment with the orally administered complement inhibitor compound 1, following the protocol detailed below. The patient had refractory disease despite a kidney transplant and prior treatment with the broadly immunosuppressive drugs rituximab, cyclophosphamide, mycophenolate mofetil, tacrolimus, and steroids. Renal allograft biopsies were taken pre-dose, 2 and 7 months during therapy. The primary efficacy objective is to evaluate the efficacy of compound 1 based on change from baseline in eGFR (MDRD, Estimated Glomerular Filtration Rate) and proteinuria. The patient will have biopsy proven recurrent […] prior to start of dosing, and be deemed eligible based on the inclusion and exclusion criteria. Screening procedures will include recording of demographics, medical history, medication history, physical examination and vital signs, serum chemistry, hematology, urinalysis (including UPCR measurement), viral screening (if not performed within prior 12 weeks), and estimated glomerular filtration rate (eGFR) assessment based on serum creatinine. The baseline eGFR needs to be at least 25 mL/min/1.73 m^2 for study eligibility. On Day 1, the patient will start compound 1 treatment. Patients will take compound 1 30 mg orally twice daily for an initial period of 84 days. The patient will visit the study center on Days 1, 8, 15, 29, 57, and 85. The compound 1 dose will be taken in the morning optimally within one hour after breakfast and in the evening optimally within one hour after dinner. If the patient's clinical condition stabilizes or improves, and there are no adverse events preventing further treatment, the patient may be treated for another 84-day treatment cycle. The 84-day cycles may be repeated for a total of up to 4 cycles under this protocol. For the 84-day cycles after the first cycle, the patient will visit the study center every 4 weeks. There will be 4-week follow-up period after the patient stops the compound 1 treatment. Efficacy Assessments Include: • 1. First morning urinary PCR; • 2. eGFR by Modification of Diet in Renal Disease (MDRD) formula based on serum creatinine; • 3. Plasma and urine pharmacodynamic markers, e.g., MCP-1, C3a, C5a, properdin, and sC5b-9; • 4. Glomerular inflammation (e.g., crescents, inflammatory cell infiltrate, endocapillary proliferation) and C3 deposition in a follow-up renal biopsy sample; Pharmacokinetic Assessments

[2] = system: glomeruli of renal allograft of C3 glomerulonephritis patient; assay: Renal allograft biopsies (histology, immunofluorescence, CD68 staining) pre-dose and at 2 and 7 months of compound 1 therapy; format: in vivo, human; conditions: for Endocapillary hypercellularity/total: pre-treatment 3/11; for CD68-positive cells/glomerulus: pre-treatment 11; for Immunoflourescence microscopy, IgM: pre-treatment trace; for glomerular inflammation: after treatment, PAS staining (FIG. 2)
Text: Under the Special Needs program in the United Kingdom (which is similar to a compassionate use protocol in the US), a C3 glomerulonephritis patient received treatment with the orally administered complement inhibitor compound 1, following the protocol detailed below. The patient had refractory disease despite a kidney transplant and prior treatment with the broadly immunosuppressive drugs rituximab, cyclophosphamide, mycophenolate mofetil, tacrolimus, and steroids. Renal allograft biopsies were taken pre-dose, 2 and 7 months during therapy. […] Protocol of the Study Aim Efficacy Assessments Include: • 1. First morning urinary PCR; • 2. eGFR by Modification of Diet in Renal Disease (MDRD) formula based on serum creatinine; • 3. Plasma and urine pharmacodynamic markers, e.g., MCP-1, C3a, C5a, properdin, and sC5b-9; • 4. Glomerular inflammation (e.g., crescents, inflammatory cell infiltrate, endocapillary proliferation) and C3 deposition in a follow-up renal biopsy sample; Pharmacokinetic Assessments Renal biopsies will be analyzed by periodic acid—Schiff (PAS) staining, immunofluorescence staining for C3, C5b-9, and potentially other markers. Electron microscopy may also be performed.

Compound: Cc1ccc(NC(=O)[C@H]2CCCN(C(=O)c3c(C)cccc3F)[C@H]2c2ccc(NC3CCCC3)cc2)cc1C(F)(F)F [compound 1]
- patient's condition in response to treatment ([1]; C3 glomerulonephritis patient, refractory disease after kidney transplant, compound 1 30 mg orally twice daily): improved
- eGFR decline ([1]; after 1 month of treatment (FIG. 1)): attenuated
- eGFR ([1]; during compound 1 treatment): stabilized
- eGFR decline ([1]; eGFR 83 mL/min/1.73 m^2 14 months prior, 46 mL/min/1.73 m^2 at start of treatment): attenuated or stopped
- Proteinuria drop ([1]; with compound 1 treatment, 30 mg orally twice daily): approximately 80%
- Endocapillary hypercellularity/total ([2]; 2 months of therapy): 0/36
- CD68-positive cells/glomerulus ([2]; 2 months of therapy): 2-3 cells/glomerulus
- Immunoflourescence microscopy, IgM ([2]; 2 months of therapy): neg
- Endocapillary hypercellularity/total ([2]; 7 months of therapy): 0/14
- CD68-positive cells/glomerulus ([2]; 7 months of therapy): 1-2 cells/glomerulus
- Immunoflourescence microscopy, IgM ([2]; 7 months of therapy): neg
- glomerular inflammation [2]: reduction
- glomerular inflammation ([2]; listed as Compound 1): reduced
- glomerular endocapillary proliferation ([2]; on-treatment kidney biopsy compared to pre-treatment biopsy): clearance
- glomerular inflammatory macrophages ([2]; on-treatment/repeat biopsies compared to pre-treatment, CD68 staining (FIG. 2)): marked decrease; also recorded: reduction
- glomerular endocapillary hypercellularity ([2]; repeat biopsies, PAS staining after treatment (FIG. 2)): resolution; also recorded: reduction
